Reference: article PMC7503831 (Molecules, 2020)
pEC50, pKi: −log10 of the molar value. “Also recorded” adds a separate entry of the source. Read-outs that look alike come from different tables or passages of the source. Marks after values point to notes of the source that are not given here.

Assays:
human DOR [1] = target: T1, human DOR (Homo sapiens, UniProt P41143); experiment: [35S]GTPγS binding assay, functional activity for the DOR; assay type: biochemical; details: for Emax: read-out: Functional Activity for DOR, Emax (95% CI)
T1 construct: expressed in transfected cells; host or cells: CHO cells (membrane preparation)
Method: (§1) The human MOR, DOR, or KOR recombinant CHO cell pellets were resuspended in 50 mM Tris–HCl buffer containing 5 mM MgCl2, 1 mM ethylene glycol bis(2-aminoethyl ether)-N,N,N,N-tetraacetic acid (EGTA), pH 7.4. The cell suspensions were disrupted by use of a glassteflon homogeniser and centrifuged at 48,000× g for 15 min. The supernatant was discarded and the pellets were resuspended in buffer at a concentration of 5 mg protein/mL and stored at −80 °C until further use.
Human MOR, DOR, or KOR recombinant CHO cell membranes were incubated for 2 h at 25 °C in 0.25 mL of 50 mM Tris–HCl buffer containing 5 mM MgCl2, 1 mM EGTA, 100 mM NaCl, pH 7.4 with various concentrations of the tested compound, 30 μM guanosine 5-diphosphate (GDP) and 0.1 nM [^35S]GTPγS (PerkinElmer, Inc.). The incubation was terminated by collecting membranes on Filtermat B filter (PerkinElmer, Inc.) using a FilterMate™ harvester (Perkin Elmer, Inc.). The filters were then washed three times with 50 mM Tris–HCl buffer, pH 7.4. Then, MeltiLex scintillant (PerkinElmer, Inc.) was melted onto the dried filters. Radioactivity was determined by a MicroBeta scintillation counter (PerkinElmer, Inc.). EC50, Emax, and 95% CI values were calculated by Prism software (version 5.0). Nonspecific binding was measured in the presence of 10 μM unlabeled GTPγS (PerkinElmer, Inc.).

human MOR = target: T2, human MOR (Homo sapiens, UniProt P35372); experiment: Competitive binding assay, [3H]DAMGO displacement, MOR
T2 construct: expressed in transfected cells; host or cells: CHO cells (membrane preparation)
Method: as §1
(§2) Human MOR, DOR, or KOR recombinant CHO cell membranes were incubated for 2 h at 25 °C in 0.25 mL of the buffer containing with various concentrations of the tested compound, 2 nM [^3H] DAMGO, [^3H] […] U69,593 (PerkinElmer, Inc., MA, USA), respectively. The incubation was terminated by collecting membranes on Filtermat B filter (PerkinElmer, Inc.) using a FilterMate™ harvester (PerkinElmer, Inc.). The filters were then washed three times with 50 mM Tris–HCl buffer, pH 7.4. Then, MeltiLex scintillant (PerkinElmer, Inc.) was melted onto the dried filters. Radioactivity was determined by a MicroBeta scintillation counter (PerkinElmer, Inc.). […] Ki and 95% CI values were calculated by Prism software (version 5.0).

human DOR [2] = target: T1, human DOR; experiment: Competitive binding assay, [3H]DPDPE displacement, DOR
Method: as §1, §2

human DOR [3] = target: T1, human DOR; details: cited from earlier work; for Emax for the DOR (95% CI) / Functional Activity for DOR, Emax (95% CI) / pEC50 / Emax: Percent stimulation at 10 μM of the tested compound: [35S]GTPγS
human DOR [4] = target: T1, human DOR; details: cited from earlier work
human KOR = target: T3, human KOR (Homo sapiens, UniProt P41145); experiment: Competitive binding assay, [3H]U69,593 displacement, KOR
T3 construct: expressed in transfected cells; host or cells: CHO cells (membrane preparation)
Method: as §1, §2

[5] = read-out: Binding Affinity, Ki (DOR) (95% CI), [3H]DPDPE, CHO cells expressing human DOR
[6] = read-out: Functional Activity for DOR, EC50 (95% CI), human DOR recombinant CHO cell membrane
[7] = read-out: Ki for the DOR (95% CI)
[8] = read-out: EC50 for the DOR (95% CI)

Row | Compound | Functional activity for the DOR, in words (human DOR [1]; [35S]GTPγS) | Emax (human DOR [1]) | pKi (human MOR) | pKi (human DOR [2]) | Emax for the DOR (95% CI) (human DOR [3]) | pKi (human KOR) | pKi (human DOR [4]; [7]) | also measured
1 | CS(=O)(=O)N1CCC23c4c5ccc(O)c4OC2c2[nH]c4ccccc4c2CC3(O)C1C5 (stereo not drawn) [9a, 6,7-Didehydro-4,5α-epoxy-17-(methylsulfonyl)indolo[2′,3′:6,7]morphinan-3,14β-diol] | inverse agonist activities | -48.8% | 5.00 | 6.55 |  |  |  | pEC50 (human DOR [1]): 9.33
2 | Oc1ccc2c3c1O[C@H]1c4[nH]c5ccccc5c4C[C@@]4(O)[C@@H](C2)N(CC(F)(F)F)CC[C@]314 [SYK-165] |  |  |  |  | −44.8% |  |  | 
3 | C=CCN1CC[C@]23c4c5ccc(O)c4O[C@H]2c2[nH]c4ccccc4c2C[C@@]3(O)[C@H]1C5 [SYK-706] |  |  |  |  |  |  |  | pKi (human DOR [4]; [5]): 9.22; Functional Activity for DOR, Emax (95% CI) (human DOR [3]): 16.2%; pEC50 (human DOR [3]; [6]): 7.00
4 | Oc1ccc2c3c1O[C@H]1c4[nH]c5ccccc5c4C[C@@]4(O)[C@@H](C2)N(CC2CC2)CC[C@]314 [NTI, naltrindole] |  |  |  |  |  |  |  | Emax: Percent stimulation at 10 μM of the tested compound (human DOR [3]): 7.50 ^h %; Functional activity for the DOR, in words (human DOR [3]): neutral antagonist
5 | O=S(=O)(c1ccccc1)N1CCC23c4c5ccc(O)c4OC2c2[nH]c4ccccc4c2CC3(O)C1C5 (stereo not drawn) [9c, 6,7-Didehydro-4,5α-epoxy-17-(phenylsulfonyl)indolo[2′,3′:6,7]morphinan-3,14β-diol] | neutral DOR antagonist |  | 4.69 | 7.30 |  | 7.02 |  | 
6 | O=S(=O)(CCc1ccccc1)N1CCC23c4c5ccc(O)c4OC2c2[nH]c4ccccc4c2CC3(O)C1C5 (stereo not drawn) [9e, 6,7-Didehydro-4,5α-epoxy-17-((2-phenylethyl)sulfonyl)indolo[2′,3′:6,7]morphinan-3,14β-diol] | DOR agonists; also recorded: full DOR agonist activity with moderate potency | 88.1% | 5.85 | 6.88 |  | 4.75 |  | pEC50 (human DOR [1]): 7.12; Functional activity category for the DOR (by Emax) (human DOR [1]; [35S]GTPγS): full agonist
7 | O=C(CCc1ccccc1)N1CC[C@]23c4c5ccc(O)c4O[C@H]2c2[nH]c4ccccc4c2C[C@@]3(O)[C@H]1C5 [SYK-753] |  |  |  |  | 97.5% |  | 7.38 | pEC50 (human DOR [3]; [8]): 6.88
8 | Oc1ccc2c3c1O[C@H]1c4[nH]c5ccccc5c4C[C@@]4(O)[C@@H](C2)N(CCc2ccccc2)CC[C@]314 [SYK-707] |  |  |  |  |  |  |  | pKi (human DOR [4]; [5]): 8.71; Functional Activity for DOR, Emax (95% CI) (human DOR [3]): 40.3%; pEC50 (human DOR [3]; [6]): 7.82
9 | O=C(Cc1ccccc1)N1CC[C@]23c4c5ccc(O)c4O[C@H]2c2[nH]c4ccccc4c2C[C@@]3(O)[C@H]1C5 [SYK-754] |  |  |  |  | 88.5% |  | 7.05 | Functional activity for the DOR, in words (human DOR [3]): DOR full agonist with moderate potency; pEC50 (human DOR [3]; [8]): 6.90
10 | O=S(=O)(N1CCC23c4c5ccc(O)c4OC2c2[nH]c4ccccc4c2CC3(O)C1C5)C(F)(F)F (stereo not drawn) [9b, 6,7-Didehydro-4,5α-epoxy-17-(1,1,1-trifluoromethylsulfonyl)indolo[2′,3′:6,7]morphinan-3,14β-diol] | inverse agonist activities |  | 4.93 | 6.44 |  | 6.17 |  | Emax at 10 µM (human DOR [1]; read-out: Emax: Percent stimulation at 10 μM of the tested compound, [35S]GTPγS, 10 μM): -36.1%
11 | O=C(N1CC[C@]23c4c5ccc(O)c4O[C@H]2c2[nH]c4ccccc4c2C[C@@]3(O)[C@H]1C5)C(F)(F)F [SYK-752] |  |  |  |  |  |  | 8.11 | Emax: Percent stimulation at 10 μM of the tested compound (human DOR [3]): −1.10%
12 | O=C(C1CC1)N1CC[C@]23c4c5ccc(O)c4O[C@H]2c2[nH]c4ccccc4c2C[C@@]3(O)[C@H]1C5 [SYK-623] |  |  |  |  | −91.2% |  | 7.76 | Functional activity for the DOR, in words (human DOR [3]): full inverse agonist; Functional activity for the DOR, in words (human DOR [3]; listed as SKY-623): DOR full inverse agonist with high potency; pEC50 (human DOR [3]; [8]): 9.01
13 | O=S(=O)(C1CC1)N1CCC23c4c5ccc(O)c4OC2c2[nH]c4ccccc4c2CC3(O)C1C5 (stereo not drawn) [9f, 17-(Cyclopropylsulfonyl)-6,7-didehydro-4,5α-epoxyindolo[2′,3′:6,7]morphinan-3,14β-diol] | inverse agonist activities; also recorded: almost full inverse agonists | -80.5% | 5.41 | 8.13 |  | 7.87 |  | pEC50 (human DOR [1]): 8.80; Functional activity category for the DOR (by Emax) (human DOR [1]; [35S]GTPγS): full inverse agonist (full inverse agonist (−80% ≥ Emax)); Affinity for the DOR, fold lower than that of the mother compound NTI (human DOR [2]; Ki compared with NTI): over 10 fold
14 | CC(=O)N1CC[C@]23c4c5ccc(O)c4O[C@H]2c2[nH]c4ccccc4c2C[C@@]3(O)[C@H]1C5 [SYK-747] |  |  |  |  |  |  | 6.01 | Emax: Percent stimulation at 10 μM of the tested compound (human DOR [3]): −4.86%
15 | O=C(c1ccccc1)N1CC[C@]23c4c5ccc(O)c4O[C@H]2c2[nH]c4ccccc4c2C[C@@]3(O)[C@H]1C5 [SYK-736] |  |  |  |  | −92.7% |  | 6.54 | pEC50 (human DOR [3]; [8]): 6.49
16 | Oc1ccc2c3c1O[C@H]1c4[nH]c5ccccc5c4C[C@@]4(O)[C@@H](C2)N(Cc2ccccc2)CC[C@]314 [SYK-619] |  |  |  |  |  |  |  | pKi (human DOR [4]; [5]): 7.80; Functional Activity for DOR, Emax (95% CI) (human DOR [3]): −56.5%; pEC50 (human DOR [3]; [6]): 7.79
17 | C=CC(=O)N1CC[C@]23c4c5ccc(O)c4O[C@H]2c2[nH]c4ccccc4c2C[C@@]3(O)[C@H]1C5 [SYK-836] |  |  |  |  | −86.2% |  | 8.94 | pEC50 (human DOR [3]; [8]): 8.84
18 | O=S(=O)(Cc1ccccc1)N1CCC23c4c5ccc(O)c4OC2c2[nH]c4ccccc4c2CC3(O)C1C5 (stereo not drawn) [9d, 17-(Benzylsulfonyl)-6,7-didehydro-4,5α-epoxyindolo[2′,3′:6,7]morphinan-3,14β-diol] | DOR agonists | 47.1% | 5.29 | 6.13 |  | 4.73 |  | Binding affinity for the DOR, in words (human DOR [2]): low
19 | Oc1ccc2c3c1O[C@H]1c4[nH]c5ccccc5c4C[C@@]4(O)[C@@H](C2)N(CCCc2ccccc2)CC[C@]314 [SYK-903] |  | 105% |  | 6.78 |  |  |  | pEC50 (human DOR [1]): 8.13
20 | C=CS(=O)(=O)N1CCC23c4c5ccc(O)c4OC2c2[nH]c4ccccc4c2CC3(O)C1C5 (stereo not drawn) [9g, 6,7-Didehydro-4,5α-epoxy-17-(ethenylsulfonyl)indolo[2′,3′:6,7]morphinan-3,14β-diol] | inverse agonist activities; also recorded: almost full inverse agonists | -80.2% | 5.45 | 6.71 |  | 4.23 |  | pEC50 (human DOR [1]): 8.11
